The assay has as its target T1, human KSP motor domain (Homo sapiens, UniProt P52732).
T1 construct: were used to amplify the motor domain and the neck linker region; made in house; host or cells: E. coli BL21 (DE3)
T1 sequence (P52732 18-359 limits assumed): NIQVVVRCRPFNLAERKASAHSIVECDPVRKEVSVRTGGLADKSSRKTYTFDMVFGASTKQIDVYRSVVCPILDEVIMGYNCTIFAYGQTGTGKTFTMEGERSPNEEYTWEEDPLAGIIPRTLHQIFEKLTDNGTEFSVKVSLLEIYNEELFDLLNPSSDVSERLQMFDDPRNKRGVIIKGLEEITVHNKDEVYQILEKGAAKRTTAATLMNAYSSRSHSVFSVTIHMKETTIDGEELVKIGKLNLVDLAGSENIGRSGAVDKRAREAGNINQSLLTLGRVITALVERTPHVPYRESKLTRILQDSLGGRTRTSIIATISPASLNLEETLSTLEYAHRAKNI
The assay can be described thus: Kinesin ATPase In Vitro Assay. The class given is biochemical. Particulars: human poly-histidine tagged KSP motor domain (KSP(367H)), microtubules, 1 mM ATP, 23° C. The source says:
I. Kinesin ATPase In Vitro Assay
Cloning and Expression of Human Poly-Histidine Tagged KSP Motor Domain (KSP(367H))
Plasmids for the expression of the human KSP motor domain construct were cloned by PCR using a pBluescript full length human KSP construct (Blangy et al., Cell, vol. 83, pp 1159-1169, 1995) as a template. The N-terminal primer 5′-[…] (SEQ. ID. NO.: 1) and the C-terminal primer 5′-[…] […] (SEQ. ID. NO.: 2) were used to amplify the motor domain and the neck linker region. The PCR products were digested with AseI and XhoI, ligated into the NdeI/XhoI digestion product of pRSETa (Invitrogen) and transformed into E. coli BL21 (DE3).
Cells were grown at 37° C. to an OD600 of 0.5. […]
The kinesin motor domain is incubated with microtubules, 1 mM ATP (1:1 MgCl2: Na-ATP), and compound at 23° C. in buffer containing 80 mM K-HEPES (pH 7.0), 1 mM EGTA, 1 mM DTT, 1 mM MgCl2, and 50 mM KCl. […] Free phosphate from the ATP hydrolysis reaction is measured via a quinaldine red/ammonium molybdate assay by adding 150 μl of quench C buffer containing a 2:1 ratio of quench A:quench B. Quench A contains 0.1 mg/ml quinaldine red and 0.14% polyvinyl alcohol; quench B contains 12.3 mM ammonium molybdate tetrahydrate in 1.15 M sulfuric acid. The reaction is incubated for 10 minutes at 23° C., and the absorbance of the phospho-molybdate complex is measured at 540 nm.

The IC50 is the point on the concentration scale where inhibition reaches its midpoint.

The compound `Cc1ccc(-n2c(-c3ccccc3Br)nc3sccc3c2=O)cc1` [1-4, 2-(2-bromophenyl)-3-(4-methylphenyl)thieno[2,3-d]pyrimidin-4(3H)-one] registered an IC50 of at most 50 µM.

For the origin of these results see US20070149553A1, “Mitotic kinesin inhibitors” (priority 2003, published 2007).
